Patent US10919916B2, “Boron-containing small molecules” (Bill & Melinda Gates Foundation, priority 2016, dated 2021)
Values after ≈ are worked out from the molar mass of the structure shown. Read-outs that look alike come from different tables or passages of the source.

Experiments:
Format in all cases: cell-based
[1] = tested on: Streptococcus pneumoniae (ATCC 49619); test: Antibacterial MIC assay (microbroth dilution, CLSI)
Outline: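 S. pneumoniae at 5×10^5 CFU/mL (from 0.5 McFarland saline suspension) was tested against 2-fold serial compound dilutions in cation-adjusted Mueller-Hinton broth plus 3% lysed horse blood, per CLSI M07-A10/M100-S25 microdilution guidelines.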

[2] = tested on: Staphylococcus aureus, MRSA (ATCC 33591); test: as above; conditions: read-out: MIC Staphylococcus aureus, MRSA (ATCC 33591)
Outline: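 Compound 2-fold dilution series tested against 5×10^5 CFU/mL bacteria prepared from 0.5 McFarland saline suspensions of overnight colonies. Medium was cation-adjusted Mueller-Hinton broth, supplemented with 3% lysed horse blood for the fastidious pneumococcus. Protocol followed CLSI M07-A10 and M100-S25.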

[3] = tested on: Wolbachia pipientis in C6/36 cell line; test: Anti-Wolbachia high-content assay; conditions: read-out: EC50 Wolbachia pipientis in C6/36 cell line
Outline: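 Wolbachia-infected C6/36 cells stained 15 minutes, then medium replaced and five fields per well imaged confocally at 60× with fluorescein filters. Each intact cell scored on cytoplasmic texture complexity.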

[4] = ATCC49619, microbroth dilution, 3% lysed horse blood, 35° C. for 16-20 hours, read-out: MIC Streptococcus pneumoniae (ATCC 49619)
[5] = microbroth dilution, cation-adjusted Mueller-Hinton broth, 35° C. for 16-20 hours
[6] = C6/36 (wAlbB) cells, 7 days at 26° C., 50% reduction of Wolbachia

| SMILES | MIC [1, 4] [µg/mL] | MIC [2, 5] [µg/mL] | EC50 [3, 6] [nM] | MIC ([1]; ATCC49619, read-out: MIC Streptococcus pneumoniae (ATCC 49619)) [µg/mL] | MIC [2] [µg/mL] | EC50 ([3]; C6/36, […]) [nM] |
| --- | --- | --- | --- | --- | --- | --- |
| C=C[C@]1(C)C[C@@H](OC(=O)COc2ccc3c(c2)B(O)ON=C3)[C@]2(C)[C@H](C)CC[C@]3(C[C@H](O)C(=O)[C@H]32)[C@@H](C)[C@@H]1O [Compound 98, (2S,3aR,4R,5R,7S,8S,9R,9aS,12R)-2,8-dihydroxy-4,7,9,12-tetramethyl-3-oxo-7-vinyldecahydro-4,9a-propanocyclopenta[8]annulen-5-yl 2-((1-hydroxy-1H-benzo[d][1,2,6]oxazaborinin-7-yl)oxy)acetate] | 0.5 to 2 (≈ 0.927 to 3.71 µM) | 0.5 to 2 (≈ 0.927 to 3.71 µM) | 63 |  |  |  |
| C=C[C@]1(C)C[C@@H](OC(=O)COc2ccc3c(c2C)B(O)N(C(=O)OC)N=C3)[C@]2(C)[C@H](C)CC[C@]3(C[C@H](F)C(=O)[C@H]32)[C@@H](C)[C@@H]1O [Compound 95, Methyl 7-(2-(((2S,3aR,4R,5R,7S,8S,9R,9aS,12R)-2-fluoro-8-hydroxy-4,7,9,12-tetramethyl-3-oxo-7-vinyldecahydro-4,9a-propanocyclopenta[8]annulen-5-yl)oxy)-2-oxoethoxy)-1-hydroxy-8-methylbenzo[d][1,2,3]diazaborinine-2(1H)-carboxylate] | < 0.25 | < 0.25 | 46 |  |  |  |
| C=C[C@]1(C)C[C@@H](OC(=O)COc2ccc3c(c2Cl)B(O)OC3CNC(=O)OC(C)(C)C)[C@]2(C)[C@H](C)CC[C@]3(CCC(=O)[C@H]32)[C@@H](C)[C@@H]1O (stereo partly drawn) [Compound 30, (3aR,4R,5R,7S,8S,9R,9aS,12R)-8-hydroxy-4,7,9,12-tetramethyl-3-oxo-7-vinyldecahydro-4,9a-propanocyclopenta[8]annulen-5-yl 2-((3-(((tert-butoxycarbonyl)amino)methyl)-7-chloro-1-hydroxy-1,3-dihydrobenzo[c][1,2]oxaborol-6-yl)oxy)acetate] |  |  |  | 4 to 32 (≈ 5.93 to 47.5 µM) | 0.5 to 2 (≈ 0.742 to 2.97 µM) | > 1000 |
| C=C[C@]1(C)C[C@@H](OC(=O)COc2cc3c(c(C4CCN(C(=O)OC(C)(C)C)CC4)c2)COB3O)[C@]2(C)[C@H](C)CC[C@]3(CCC(=O)[C@H]32)[C@@H](C)[C@@H]1O [Compound 17, tert-butyl 4-(1-hydroxy-6-(2-(((3aR,4R,5R,7S,8S,9R,9aS,12R)-8-hydroxy-4,7,9,12-tetramethyl-3-oxo-7-vinyldecahydro-4,9a-propanocyclopenta[8]annulen-5-yl)oxy)-2-oxoethoxy)-1,3-dihydrobenzo[c][1,2]oxaborol-4-yl)piperidine-1-carboxylate] | < 0.25 | 0.5 to 2 (≈ 0.721 to 2.88 µM) | 623 |  |  |  |
